Test results published in ChEMBL document CHEMBL1201862, “PubChem BioAssay data set” (2004).
Active and inactive are the calls of the source.

What was measured:
[1] = biological target: T1, Endoribonuclease toxin MazF (Escherichia coli K-12, UniProt P0AE70); experiment: activation of MazEF endoribonuclease cleavage – biochemical, fluorescence, single-stranded RNA substrate, uHTS hits, dose response (AID 588481); assay type: functional
T1 sequence (P0AE70 whole entry): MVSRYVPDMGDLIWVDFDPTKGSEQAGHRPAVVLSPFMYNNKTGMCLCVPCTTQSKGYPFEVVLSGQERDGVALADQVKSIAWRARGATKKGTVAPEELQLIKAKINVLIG

[2] = biological target: T1, Endoribonuclease toxin MazF; experiment: substrate-only fluorescence increase artefacts – biochemical, single-stranded RNase substrate, counter-screen for MazEF activator project, dose response (AID 588502); assay type: functional
[3] = biological target: T2, Alkaline phosphatase, tissue-nonspecific isozyme (Homo sapiens, UniProt P05186); experiment: potency against alkaline phosphatase TNAP – biochemical, luminescent, dose response, SAR follow-up (AID 1056)
T2 sequence (P05186 whole entry): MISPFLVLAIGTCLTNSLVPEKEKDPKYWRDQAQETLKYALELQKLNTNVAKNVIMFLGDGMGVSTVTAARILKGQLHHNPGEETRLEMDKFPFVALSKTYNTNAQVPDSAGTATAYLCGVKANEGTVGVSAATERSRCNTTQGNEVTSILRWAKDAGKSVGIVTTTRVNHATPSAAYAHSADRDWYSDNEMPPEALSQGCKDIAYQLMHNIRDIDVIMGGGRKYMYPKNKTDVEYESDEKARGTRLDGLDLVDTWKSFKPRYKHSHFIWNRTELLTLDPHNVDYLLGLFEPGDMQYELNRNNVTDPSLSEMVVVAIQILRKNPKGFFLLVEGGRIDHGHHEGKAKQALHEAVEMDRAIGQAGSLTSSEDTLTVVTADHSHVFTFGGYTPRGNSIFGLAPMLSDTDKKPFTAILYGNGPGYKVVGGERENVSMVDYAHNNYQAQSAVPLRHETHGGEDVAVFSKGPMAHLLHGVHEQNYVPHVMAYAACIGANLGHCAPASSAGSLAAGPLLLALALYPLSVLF

[4] = biological target: Glyceraldehyde-3-phosphate dehydrogenase (Homo sapiens, UniProt P04406)
HEK293 [5] = experiment: cells; details: Homo sapiens
HEK293 [6] = experiment: cells; details: Homo sapiens; remark: listed apart in the source
[7] = viability of PTEN-deleted HCT116 cells – cell-based, HCT116 PTEN knockout, dose response (AID 1047); assay type: functional;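 note: HCT116 colon tumor cells with PTEN knocked out; cells exposed to compound for 60 hours before readout; potency for loss of cell viability measured by luminescence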
[8] = viability of HCT116 lacking mutant beta-catenin – cell-based, human colon tumor, dose response (AID 1045); assay type: functional;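 note: HCT116 colon tumor cells with beta catenin knocked out; cells exposed to compound for 60 hours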
[9] = biological target: T3, High affinity choline transporter 1 (Homo sapiens, UniProt Q9GZV3); experiment: human choline transporter blockers, potency – cell-based, 5-point CRC, membrane potential dye, dose response (AID 504840); assay type: functional
T3 sequence (Q9GZV3 whole entry): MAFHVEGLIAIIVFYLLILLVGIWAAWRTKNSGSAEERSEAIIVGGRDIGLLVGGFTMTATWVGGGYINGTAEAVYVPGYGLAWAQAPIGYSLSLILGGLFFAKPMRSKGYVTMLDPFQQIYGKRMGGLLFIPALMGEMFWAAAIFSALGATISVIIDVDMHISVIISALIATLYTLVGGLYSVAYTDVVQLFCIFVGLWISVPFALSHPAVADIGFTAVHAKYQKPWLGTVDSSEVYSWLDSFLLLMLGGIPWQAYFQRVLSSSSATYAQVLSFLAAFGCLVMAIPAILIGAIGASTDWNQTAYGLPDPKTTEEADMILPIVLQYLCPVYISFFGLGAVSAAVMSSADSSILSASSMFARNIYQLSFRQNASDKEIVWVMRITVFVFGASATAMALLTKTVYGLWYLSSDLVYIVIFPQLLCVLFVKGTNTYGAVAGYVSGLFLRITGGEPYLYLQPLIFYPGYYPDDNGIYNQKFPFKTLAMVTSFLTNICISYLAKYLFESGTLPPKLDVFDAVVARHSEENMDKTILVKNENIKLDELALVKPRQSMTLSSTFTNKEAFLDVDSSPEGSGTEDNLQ

[10] = cAMP pathway inhibition in counterscreen cell line – TR-FRET cAMP detection, counter-screen for MC4R biased antagonist project, dose response (AID 602305); assay type: functional, cell-based;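 note: U2OS cells stimulated with forskolin near its EC80 as the cAMP inducer; potency is for inhibition of forskolin-stimulated cAMP signaling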
Melanocortin receptor 4 = Melanocortin receptor 4 (Homo sapiens, UniProt P32245); experiment: inhibitors of MC4R cAMP signaling – cell-based, TR-FRET, biased antagonists, dose response (AID 602298); assay type: functional;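 note: antagonist potency against agonist-stimulated cAMP production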
[11] = biological target: Peroxisome proliferator-activated receptor gamma/Nuclear receptor coactivator 2 (Homo sapiens, UniProt P37231); experiment: (§1) TR-FRET dose response biochemical High Throughput Screening assay for agonists of the steroid receptor coactivator 2 (SRC-2) recruitment by the peroxisome proliferator-activated receptor gamma (PPAR gamma): non-selective agonists. [Related pubchem assays: 1297, 1032 ]; assay type: functional
[12] = biological target: Peroxisome proliferator-activated receptor gamma/Nuclear receptor coactivator 3 (Homo sapiens, UniProt P37231); experiment: as §1, with “3 (SRC-3)” for “2 (SRC-2)”, “1301 (Confirmation screen.), 1048 (Primary screen.)]” for “1297, 1032 ]”; assay type: functional
[13] = biological target: Peroxisome proliferator-activated receptor gamma/Nuclear receptor coactivator 1 (Homo sapiens, UniProt P37231); experiment: as §1, with “1 (SRC-1)” for “2 (SRC-2)”, “assays (depositor defined):AID1300, AID1808, AID504735, AID631]” for “assays: 1297, 1032 ]”; assay type: protein assay
[14] = Trypanosoma cruzi growth suppression in host cells – NIH3T3 host cells, beta-gal luminescence, confirmation (AID 2044); assay type: functional, cell-based;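 note: intracellular parasites grown in NIH/3T3 mouse fibroblasts as host cells; luminescent beta-galactosidase reporter signal from transgenic T. cruzi replicating inside host cells; inhibitors lower the luminescence signal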
[15] = NIH3T3 cell viability loss – ATP luminescence, mouse fibroblasts, counter-screen, dose response (AID 2010); assay type: functional, cell-based;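 note: cells exposed to compound for about 90 hours before reading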
Cysteine protease ATG4B = biological target: T4, Cysteine protease ATG4B (Homo sapiens, UniProt Q9Y4P1); assay type: functional;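 note: Fluorescence-based dose-response confirmation assay measuring inhibition of ATG4B activity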
T4 sequence (Q9Y4P1 whole entry): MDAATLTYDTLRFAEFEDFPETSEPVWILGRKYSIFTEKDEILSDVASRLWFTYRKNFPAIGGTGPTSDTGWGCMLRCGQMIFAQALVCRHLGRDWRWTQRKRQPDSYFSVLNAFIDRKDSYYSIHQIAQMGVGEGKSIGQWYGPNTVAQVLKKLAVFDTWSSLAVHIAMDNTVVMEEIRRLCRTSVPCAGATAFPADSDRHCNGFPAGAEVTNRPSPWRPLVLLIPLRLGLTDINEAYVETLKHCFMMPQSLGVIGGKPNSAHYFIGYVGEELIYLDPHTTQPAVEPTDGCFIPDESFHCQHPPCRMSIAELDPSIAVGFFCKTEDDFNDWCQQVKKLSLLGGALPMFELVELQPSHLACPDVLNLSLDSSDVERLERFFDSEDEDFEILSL

Phospholipase A2 = Phospholipase A2 (Homo sapiens, UniProt P04054); assay type: functional;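 note: confirmatory dose-response counterscreen on phospholipase A2, testing hits that came from an ultra-high-throughput screen for ATG4B inhibitors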
[16] = biological target: T5, Nucleotide-binding oligomerization domain-containing protein 1 (Homo sapiens, UniProt Q9Y239); experiment: blockers of NOD1 pathway activity – revised, SAR follow-up (AID 2333); assay type: functional
T5 sequence (Q9Y239 whole entry): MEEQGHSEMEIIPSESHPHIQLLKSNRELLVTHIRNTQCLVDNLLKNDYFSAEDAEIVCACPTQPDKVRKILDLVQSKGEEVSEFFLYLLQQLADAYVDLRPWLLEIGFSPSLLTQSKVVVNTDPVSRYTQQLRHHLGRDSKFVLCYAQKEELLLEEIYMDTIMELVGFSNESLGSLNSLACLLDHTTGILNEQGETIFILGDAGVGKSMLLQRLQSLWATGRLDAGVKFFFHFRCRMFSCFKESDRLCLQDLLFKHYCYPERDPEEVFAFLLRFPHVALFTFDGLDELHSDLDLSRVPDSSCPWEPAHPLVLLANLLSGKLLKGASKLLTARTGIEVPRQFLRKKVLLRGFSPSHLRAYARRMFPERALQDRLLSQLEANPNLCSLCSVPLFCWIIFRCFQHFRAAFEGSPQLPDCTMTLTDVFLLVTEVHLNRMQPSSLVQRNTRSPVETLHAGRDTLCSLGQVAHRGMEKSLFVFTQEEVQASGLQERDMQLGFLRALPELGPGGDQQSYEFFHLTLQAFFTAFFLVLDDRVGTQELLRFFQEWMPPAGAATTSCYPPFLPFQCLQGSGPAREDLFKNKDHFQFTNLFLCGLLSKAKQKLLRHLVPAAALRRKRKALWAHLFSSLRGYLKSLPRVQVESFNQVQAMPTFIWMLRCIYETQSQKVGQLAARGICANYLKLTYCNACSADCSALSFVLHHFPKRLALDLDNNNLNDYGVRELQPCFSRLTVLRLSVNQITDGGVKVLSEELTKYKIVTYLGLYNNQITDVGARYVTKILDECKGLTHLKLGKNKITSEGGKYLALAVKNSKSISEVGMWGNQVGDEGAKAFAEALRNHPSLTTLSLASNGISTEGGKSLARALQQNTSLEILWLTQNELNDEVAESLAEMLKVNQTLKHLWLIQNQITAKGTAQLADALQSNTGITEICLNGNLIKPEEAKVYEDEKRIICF

Tumor necrosis factor = Tumor necrosis factor (Homo sapiens, UniProt P01375); experiment: analog potency on TNFa NF-kB signaling – cell-based, revised, SAR follow-up (AID 2337); assay type: functional
HEK293 [17] = experiment: cells; details: Homo sapiens; remark: listed apart in the source

Tumor necrosis factor, sequence (P01375 whole entry): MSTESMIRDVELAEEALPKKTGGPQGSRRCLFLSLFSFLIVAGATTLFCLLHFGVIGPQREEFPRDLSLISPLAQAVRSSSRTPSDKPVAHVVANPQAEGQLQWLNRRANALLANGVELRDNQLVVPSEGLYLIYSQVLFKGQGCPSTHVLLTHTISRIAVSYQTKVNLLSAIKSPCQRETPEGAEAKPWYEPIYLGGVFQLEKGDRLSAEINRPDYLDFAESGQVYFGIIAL
Melanocortin receptor 4, sequence (P32245 whole entry): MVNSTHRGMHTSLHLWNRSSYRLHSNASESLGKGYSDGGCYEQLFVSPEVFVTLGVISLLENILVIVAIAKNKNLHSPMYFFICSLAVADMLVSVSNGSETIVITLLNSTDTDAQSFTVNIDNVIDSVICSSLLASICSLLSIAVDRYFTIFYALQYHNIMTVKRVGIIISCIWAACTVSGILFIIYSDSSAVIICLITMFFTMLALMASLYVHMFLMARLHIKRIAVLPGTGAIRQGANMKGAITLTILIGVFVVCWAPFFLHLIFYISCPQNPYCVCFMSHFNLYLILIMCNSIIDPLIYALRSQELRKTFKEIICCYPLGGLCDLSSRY
Peroxisome proliferator-activated receptor gamma/Nuclear receptor coactivator 3, sequence (P37231 whole entry): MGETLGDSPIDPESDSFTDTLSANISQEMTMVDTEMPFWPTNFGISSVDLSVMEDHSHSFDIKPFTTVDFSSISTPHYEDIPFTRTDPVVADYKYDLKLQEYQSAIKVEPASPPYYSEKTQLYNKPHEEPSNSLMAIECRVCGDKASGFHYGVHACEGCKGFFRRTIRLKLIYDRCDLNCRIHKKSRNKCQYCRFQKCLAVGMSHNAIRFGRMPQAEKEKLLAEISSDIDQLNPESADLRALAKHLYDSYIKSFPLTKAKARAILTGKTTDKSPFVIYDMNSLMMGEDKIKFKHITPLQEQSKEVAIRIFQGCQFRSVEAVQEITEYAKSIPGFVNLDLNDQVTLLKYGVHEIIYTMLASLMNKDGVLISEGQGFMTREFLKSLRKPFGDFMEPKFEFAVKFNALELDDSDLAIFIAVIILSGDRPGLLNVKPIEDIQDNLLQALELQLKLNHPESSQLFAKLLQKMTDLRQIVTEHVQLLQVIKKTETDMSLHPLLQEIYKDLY
Peroxisome proliferator-activated receptor gamma/Nuclear receptor coactivator 3, sequence (Q9Y6Q9 whole entry, further chain): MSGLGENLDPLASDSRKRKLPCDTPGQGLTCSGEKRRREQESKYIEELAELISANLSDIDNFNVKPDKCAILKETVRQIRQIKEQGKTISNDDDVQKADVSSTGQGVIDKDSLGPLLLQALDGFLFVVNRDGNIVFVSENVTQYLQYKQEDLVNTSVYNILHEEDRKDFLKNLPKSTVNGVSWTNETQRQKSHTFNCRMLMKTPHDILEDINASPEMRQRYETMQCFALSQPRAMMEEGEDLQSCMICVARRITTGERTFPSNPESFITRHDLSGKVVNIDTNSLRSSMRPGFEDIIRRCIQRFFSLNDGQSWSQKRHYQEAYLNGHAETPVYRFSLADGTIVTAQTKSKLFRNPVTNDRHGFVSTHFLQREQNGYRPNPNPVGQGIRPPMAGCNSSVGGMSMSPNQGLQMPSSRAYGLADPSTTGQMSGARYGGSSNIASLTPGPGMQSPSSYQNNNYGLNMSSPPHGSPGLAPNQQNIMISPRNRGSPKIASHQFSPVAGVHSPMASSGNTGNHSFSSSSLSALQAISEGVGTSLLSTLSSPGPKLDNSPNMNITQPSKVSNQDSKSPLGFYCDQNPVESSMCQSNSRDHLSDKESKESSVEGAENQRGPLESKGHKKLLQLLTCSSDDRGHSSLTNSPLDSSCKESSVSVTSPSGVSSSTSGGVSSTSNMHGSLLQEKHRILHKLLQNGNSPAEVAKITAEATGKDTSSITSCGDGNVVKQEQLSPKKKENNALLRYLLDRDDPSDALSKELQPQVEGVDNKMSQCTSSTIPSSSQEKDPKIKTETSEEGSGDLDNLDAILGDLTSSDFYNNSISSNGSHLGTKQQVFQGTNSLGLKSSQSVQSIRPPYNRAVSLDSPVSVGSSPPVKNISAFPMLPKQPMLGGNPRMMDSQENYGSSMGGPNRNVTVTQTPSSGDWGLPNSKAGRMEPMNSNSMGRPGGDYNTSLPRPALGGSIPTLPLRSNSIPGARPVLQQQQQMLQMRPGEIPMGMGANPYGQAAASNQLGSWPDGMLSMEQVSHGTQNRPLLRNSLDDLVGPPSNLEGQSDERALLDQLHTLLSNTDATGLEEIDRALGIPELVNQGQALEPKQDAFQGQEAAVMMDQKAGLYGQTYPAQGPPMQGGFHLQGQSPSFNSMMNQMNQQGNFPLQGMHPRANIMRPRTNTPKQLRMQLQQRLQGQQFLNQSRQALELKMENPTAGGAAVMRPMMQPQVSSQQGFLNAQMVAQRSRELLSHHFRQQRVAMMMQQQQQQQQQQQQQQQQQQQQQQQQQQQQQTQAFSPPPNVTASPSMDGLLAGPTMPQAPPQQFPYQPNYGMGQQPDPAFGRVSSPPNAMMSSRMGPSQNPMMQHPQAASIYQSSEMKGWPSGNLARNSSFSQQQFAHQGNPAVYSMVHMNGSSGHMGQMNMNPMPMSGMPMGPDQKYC
Peroxisome proliferator-activated receptor gamma/Nuclear receptor coactivator 1, sequence (P37231 whole entry): as the sequence (P37231 whole entry) above
Peroxisome proliferator-activated receptor gamma/Nuclear receptor coactivator 1, sequence (Q15788 whole entry, further chain): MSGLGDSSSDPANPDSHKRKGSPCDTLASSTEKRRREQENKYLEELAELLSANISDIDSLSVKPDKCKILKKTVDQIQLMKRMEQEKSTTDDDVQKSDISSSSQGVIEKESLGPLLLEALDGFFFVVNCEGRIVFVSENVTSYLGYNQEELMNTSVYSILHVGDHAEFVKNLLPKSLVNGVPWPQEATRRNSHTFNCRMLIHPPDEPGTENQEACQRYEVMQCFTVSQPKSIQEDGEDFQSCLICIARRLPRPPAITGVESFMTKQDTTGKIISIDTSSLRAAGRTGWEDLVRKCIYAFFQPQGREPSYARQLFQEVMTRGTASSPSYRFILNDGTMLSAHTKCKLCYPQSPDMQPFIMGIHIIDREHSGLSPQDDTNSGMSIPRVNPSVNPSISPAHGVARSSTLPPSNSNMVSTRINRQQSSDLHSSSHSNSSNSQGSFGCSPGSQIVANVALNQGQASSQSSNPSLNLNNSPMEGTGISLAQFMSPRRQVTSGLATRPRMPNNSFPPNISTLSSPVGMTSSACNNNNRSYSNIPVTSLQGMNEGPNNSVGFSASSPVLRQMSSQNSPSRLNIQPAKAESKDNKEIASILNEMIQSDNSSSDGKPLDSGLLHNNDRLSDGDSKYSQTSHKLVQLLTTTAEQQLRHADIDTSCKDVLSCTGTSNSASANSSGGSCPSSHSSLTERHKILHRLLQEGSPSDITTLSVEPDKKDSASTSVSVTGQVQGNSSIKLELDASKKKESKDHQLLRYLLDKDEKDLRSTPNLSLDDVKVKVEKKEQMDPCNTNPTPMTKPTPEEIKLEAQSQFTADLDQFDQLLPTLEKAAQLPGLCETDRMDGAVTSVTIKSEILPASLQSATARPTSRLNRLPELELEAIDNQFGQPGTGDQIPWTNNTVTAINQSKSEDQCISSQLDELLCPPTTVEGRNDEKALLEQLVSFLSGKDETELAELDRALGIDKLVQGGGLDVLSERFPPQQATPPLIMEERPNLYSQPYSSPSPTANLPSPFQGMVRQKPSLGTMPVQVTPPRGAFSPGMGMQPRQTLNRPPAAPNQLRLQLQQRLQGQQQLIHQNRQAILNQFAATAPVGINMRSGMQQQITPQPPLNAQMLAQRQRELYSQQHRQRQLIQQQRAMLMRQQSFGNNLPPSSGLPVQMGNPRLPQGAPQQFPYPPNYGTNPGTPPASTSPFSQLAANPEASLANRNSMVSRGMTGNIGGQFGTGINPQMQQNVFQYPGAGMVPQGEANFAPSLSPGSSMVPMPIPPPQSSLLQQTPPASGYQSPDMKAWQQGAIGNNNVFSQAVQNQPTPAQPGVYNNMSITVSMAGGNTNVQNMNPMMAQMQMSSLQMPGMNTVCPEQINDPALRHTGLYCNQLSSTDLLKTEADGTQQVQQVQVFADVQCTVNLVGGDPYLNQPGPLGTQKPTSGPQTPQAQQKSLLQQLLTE
Glyceraldehyde-3-phosphate dehydrogenase, sequence (P04406 whole entry): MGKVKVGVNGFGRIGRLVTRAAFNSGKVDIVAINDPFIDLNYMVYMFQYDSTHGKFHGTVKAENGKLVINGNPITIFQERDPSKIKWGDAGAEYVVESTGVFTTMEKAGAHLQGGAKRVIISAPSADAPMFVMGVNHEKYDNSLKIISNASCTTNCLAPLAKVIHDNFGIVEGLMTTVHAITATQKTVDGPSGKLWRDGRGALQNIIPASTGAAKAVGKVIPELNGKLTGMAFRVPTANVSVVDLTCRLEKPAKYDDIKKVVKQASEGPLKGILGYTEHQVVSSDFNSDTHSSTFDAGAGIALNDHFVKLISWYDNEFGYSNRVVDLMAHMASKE
Phospholipase A2, sequence (P04054 whole entry, the tested form may be a part): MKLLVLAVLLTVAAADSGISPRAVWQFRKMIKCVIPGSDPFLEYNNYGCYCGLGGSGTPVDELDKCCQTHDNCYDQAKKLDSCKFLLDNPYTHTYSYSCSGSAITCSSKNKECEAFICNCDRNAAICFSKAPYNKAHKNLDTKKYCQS

With `Cn1c(=O)c2c(ncn2CC(=O)Nc2nc(-c3ccccc3Cl)cs2)n(C)c1=O` the EC50 [1] was > 99 µM (inactive) and the EC50 [2] was > 99 µM (inactive).

With `COc1cccc(Cc2nnc(N3C(=O)c4ccccc4C3=O)[nH]2)c1` the IC50 [3] was 1.19 µM (active) and the IC50 [4] was > 100 µM (not active).

In the case of `N#CC1=C(N)S[C@H](C(=O)C23CC4CC(CC(C4)C2)C3)[C@H]1c1ccncc1`, the EC50 (HEK293 [5]) is reported as > 59.7 µM (inactive) and the EC50 (HEK293 [6]) is reported as > 59.7 µM (inactive).

In the case of `CCOC(=O)c1c(NC(=O)CSc2nnc(-c3c[nH]c4ccccc34)n2CCOC)sc2c1CCCCC2`, the EC50 [7] is reported as 21.3 µM (active), the EC50 (HEK293 [5]) is reported as > 59.7 µM (inactive) and the EC50 [8] is reported as 26.3 µM (active). The EC50 (HEK293 [6]) was > 59.7 µM (inactive).

With `CCn1c(=O)cc(OCC(=O)NC(C)c2ccc3c(c2)OCCO3)c2ccccc21` (stereo not given) the IC50 [9] was 15.8 µM (active).

With `CCOC(=O)c1cnc2ccc(OCC)cc2c1N(C)Cc1ccccc1` the IC50 [10] was > 64.6 µM (inactive) and the IC50 (Melanocortin receptor 4) was > 64.6 µM (inactive).

In the case of `CCOc1ccc(NC(=O)CNC(=O)c2nn(-c3ccc(OC)cc3)c(=O)c3ccccc23)cc1`, the EC50 [1] is reported as 48.2 µM (inactive) and the EC50 [2] is reported as > 99 µM (inactive).

For `O=C(O)c1cc(-c2ccc(Cl)s2)nc2ccccc12`, the IC50 [10] was > 64.6 µM (inactive), the EC50 [11] was 20.7 µM (not active) and the EC50 [12] was > 79.4 µM (not active). For the same molecule, the IC50 (Melanocortin receptor 4) was > 64.6 µM (inactive) and the EC50 [13] was 42.7 µM (inactive).

For `COc1ccc(-c2cc(C(=O)Nc3cc(OC)cc(C(=O)Nc4cccc(C(F)(F)F)c4)c3)[nH]n2)cc1`, the IC50 [10] was > 64.6 µM (inactive) and the IC50 (Melanocortin receptor 4) was > 64.6 µM (inactive).

In the case of `CC(C)(C)N1C(=O)[C@H]2[C@@H](c3ccc(Br)cc3)N3C(=O)N(c4cccc(Br)c4)C(=O)[C@@]3(Cc3ccccc3)[C@H]2C1=O`, the EC50 (HEK293 [5]) is reported as > 59.7 µM (inactive), the EC50 [14] is reported as 2.32 µM (active) and the EC50 [15] is reported as > 60 µM (not active). For the same molecule, the EC50 (HEK293 [6]) was > 59.7 µM (inactive).

With `Cc1ccc(C(=O)Nc2nc(-c3ccco3)c(-c3ccco3)s2)o1` the IC50 (Cysteine protease ATG4B) was 9.23 µM (active) and the IC50 (Phospholipase A2) was 5.79 µM (active).

For `CCOC(=O)C1CCCN(C(=O)c2csc(-c3ccc4c(c3)CCO4)n2)C1` (stereo not given), the IC50 [9] was 13.2 µM (active).

With `Cc1cccc(C)c1-n1nnnc1SCC(=O)c1c(N)n(C2CC2)c(=O)[nH]c1=O` the EC50 [1] was > 99 µM (inactive) and the EC50 [2] was > 99 µM (inactive).

For `CC1CCc2c(sc(NC(=O)c3ccc(Br)cc3)c2C(=O)O)C1` (stereo not given), the IC50 [16] was 0.375 µM (active), the IC50 (Tumor necrosis factor) was 6.82 µM (active) and the IC50 (HEK293 [17]) was 4.72 µM (active).

With `O=C(Nc1sc2c(c1C(=O)O)CCCC2)c1ccc(Br)cc1` the IC50 [16] was 0.77 µM (active), the IC50 (Tumor necrosis factor) was 2.25 µM (active) and the IC50 (HEK293 [17]) was > 20 µM (inactive).

For `COc1ccc(F)c(-c2nc(CN3CCN(c4ncnc5ccccc45)CC3)c(C)o2)c1`, the IC50 [16] was 3.93 µM (active), the IC50 (Tumor necrosis factor) was 3.8 µM (active) and the IC50 (HEK293 [17]) was 13.7 µM (active).
